For test [1], the target named is T1, Furin (108-574-Tev-Flag-His) enzyme (Homo sapiens, UniProt P09958).
T1 construct: Furin (108-574-Tev-Flag-His) enzyme was expressed and purified from CHO cells; TEV cleavage site (C); FLAG (C); His (C); made in house; host or cells: CHO cells
As to the kind of experiment: Furin enzyme assay. It counts as biochemical. To be noted: for IC50: read-out: furin enzyme pIC50 (converted). Summed up: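 Compounds ran as 11-point threefold dilutions (0.00017–10 μM final) against 40 pM furin, purified from CHO cells, for 2 h at room temperature. Buffer: 100 mM HEPES pH7.5 with 1 mM CaCl2 and 0.005% Triton X-100. Envision readout. Four-parameter curve gives pXC50.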

The target in test [2] is T2, furin (endogenous protease) in U20S cells (Homo sapiens, UniProt P09958).
T2 construct: the endogenous protease cleaves GFP; endogenous in cells; host or cells: U2OS cells transduced with a BacMam reporter
T2 sequence (P09958 108-794): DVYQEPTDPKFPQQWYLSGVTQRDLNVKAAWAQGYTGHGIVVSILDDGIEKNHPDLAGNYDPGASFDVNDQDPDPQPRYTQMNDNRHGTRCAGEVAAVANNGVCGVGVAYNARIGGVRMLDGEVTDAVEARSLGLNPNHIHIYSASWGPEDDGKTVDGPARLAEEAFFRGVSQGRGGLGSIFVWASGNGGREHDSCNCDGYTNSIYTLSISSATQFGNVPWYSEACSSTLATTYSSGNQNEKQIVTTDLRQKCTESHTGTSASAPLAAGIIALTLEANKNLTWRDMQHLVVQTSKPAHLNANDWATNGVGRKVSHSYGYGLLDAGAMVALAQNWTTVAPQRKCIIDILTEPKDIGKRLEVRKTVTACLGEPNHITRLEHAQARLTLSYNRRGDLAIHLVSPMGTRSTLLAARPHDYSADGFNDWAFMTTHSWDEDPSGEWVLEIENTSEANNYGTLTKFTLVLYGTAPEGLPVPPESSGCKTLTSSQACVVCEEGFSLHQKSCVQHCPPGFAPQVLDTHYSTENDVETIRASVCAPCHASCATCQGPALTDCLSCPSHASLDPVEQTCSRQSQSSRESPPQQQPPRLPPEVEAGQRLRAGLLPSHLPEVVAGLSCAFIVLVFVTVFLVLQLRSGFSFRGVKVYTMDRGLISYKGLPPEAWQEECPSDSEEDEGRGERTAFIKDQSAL
As to the kind of experiment: Furin cell-based assay (image-based, Golgi-targeted GFP with BMP10 furin/PCSK cleavage site).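 Further: Read-out is mean GFP fluorescence of Golgi puncta per cell by high-content imaging, retained when furin inhibited, over an eleven-point 0.00017–10 µM series, four-parameter fit.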 To be noted: 24-hour incubation, read-out: furin golgi cell pXC50 (converted).

Data on 22 molecules can be found in patent US11773078B2, “Furin inhibitors” (Glaxosmithkline Intellectual Property Development Limited, priority 2018, dated 2023).

Structures can show the parent of a compound that is named as a salt.

T1 sequence (P09958 108-574): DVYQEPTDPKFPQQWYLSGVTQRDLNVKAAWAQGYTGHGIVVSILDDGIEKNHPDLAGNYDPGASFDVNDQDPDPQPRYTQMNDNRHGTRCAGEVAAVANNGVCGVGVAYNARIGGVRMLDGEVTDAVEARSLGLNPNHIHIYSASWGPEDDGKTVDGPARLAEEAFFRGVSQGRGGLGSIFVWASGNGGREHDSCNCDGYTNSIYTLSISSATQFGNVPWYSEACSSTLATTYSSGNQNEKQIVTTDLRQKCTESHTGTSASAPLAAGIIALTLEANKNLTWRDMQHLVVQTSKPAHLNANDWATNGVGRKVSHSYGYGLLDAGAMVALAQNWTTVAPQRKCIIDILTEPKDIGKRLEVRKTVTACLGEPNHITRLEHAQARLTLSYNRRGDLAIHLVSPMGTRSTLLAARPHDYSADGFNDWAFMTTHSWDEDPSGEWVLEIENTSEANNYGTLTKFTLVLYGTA

Consider `O=C(O)CC1CCN(Cc2cc(Oc3ccc(N4CCN(CCO)CC4)nc3)nc(-c3cc(Cl)cc(Cl)c3)c2)CC1` [Example 300, 2-(1-((2-(3,5-dichlorophenyl)-6-((6-(4-(2-hydroxyethyl)piperazin-1-yl)pyridin-3-yl)oxy)pyridin-4-yl)methyl)piperidin-4-yl)acetic acid], for which, in test [1], the “furin enzyme pIC50” value came to 9.1. Moreover, the EC50 in test [2] was 20 nM.
For `CC(=O)NCC1CCN(Cc2cc(Oc3ccc(NCC(C)(C)N)nc3)cc(-c3cc(Cl)cc(Cl)c3)c2)CC1` [Example 105, N-((1-((5-((6-((2-Amino-2-methylpropyl)amino)pyridin-3-yl)oxy)-3′,5′-dichloro-[1,1′-biphenyl]-3-yl)methyl)piperidin-4-yl)methyl)acetamide, 3 hydrochloride], the “furin enzyme pIC50” value in test [1] came out at 9. Further, the EC50 in test [2] is 126 nM.
For `O=C(O)CC1CCN(Cc2cc(Oc3cnc(N4CCN(CCC5(O)CC5)CC4)nc3)nc(-c3cc(Cl)cc(Cl)c3)c2)CC1` [Example 278, 2-(1-((2-(3,5-dichlorophenyl)-6-((2-(4-(2-(1-hydroxycyclopropyl)ethyl)piperazin-1-yl)pyrimidin-5-yl)oxy)pyridin-4-yl)methyl)piperidin-4-yl)acetic acid], the “furin enzyme pIC50” value in test [1] was 9.4. Moreover, in test [2], the EC50 was 10 nM.
As for `CC(CC1CCN(Cc2cc(Oc3cnc(N4CCCN(C)CC4)cn3)nc(-c3cc(Cl)cc(Cl)c3)c2)CC1)C(=O)O` (centres unmarked) [Example 351, 3-(1-((2-(3,5-dichlorophenyl)-6-((5-(4-methyl-1,4-diazepan-1-yl)pyrazin-2-yl)oxy)pyridin-4-yl)methyl)piperidin-4-yl)-2-methylpropanoic acid], in test [1], the “furin enzyme pIC50” value turned out to be 9.4. In addition, in test [2], the EC50 is 25.1 nM.
Consider `CN(C)C1CCN(c2ncc(Oc3cc(CN4CCC(CC(=O)O)CC4)cc(-c4cc(Cl)cc(Cl)c4)n3)cn2)CC1` [Example 227, 2-(1-((2-(3,5-dichlorophenyl)-6-((2-(4-(dimethylamino)piperidin-1-yl)pyrimidin-5-yl)oxy)pyridin-4-yl)methyl)piperidin-4-yl)acetic acid], for which the “furin enzyme pIC50” value in test [1] is 8.7. In addition, the EC50 in test [2] was 39.8 nM.
For `O=C(O)CC1CCN(Cc2cc(Oc3cnc(N4CCN(CC5(O)CC5)CC4)nc3)nc(-c3cc(Cl)cc(Cl)c3)c2)CC1` [Example 229, 2-(1-((2-(3,5-dichlorophenyl)-6-((2-(4-((1-hydroxycyclopropyl)methyl)piperazin-1-yl)pyrimidin-5-yl)oxy)pyridin-4-yl)methyl)piperidin-4-yl)acetic acid], the “furin enzyme pIC50” value in test [1] worked out at 8.6. Also, the EC50 in test [2] was 20 nM.
Take `CNC(=O)NCC1CCN(Cc2cc(Oc3cnc(N4CCN(CCC(=O)O)CC4)nc3)nc(-c3cc(Cl)cc(Cl)c3)c2)CC1` [Example 256, 3-(4-(5-((6-(3,5-dichlorophenyl)-4-((4-((3-methylureido)methyl)piperidin-1-yl)methyl)pyridin-2-yl)oxy)pyrimidin-2-yl)piperazin-1-yl)propanoic acid]: the “furin enzyme pIC50” value in test [1] worked out at 9.5. Moreover, the EC50 in test [2] is 15.8 nM.
For `CC(=O)NCC1CCN(Cc2cc(Oc3ccc(N4CCN(CCC(=O)O)CC4)nn3)nc(-c3cc(Cl)cc(Cl)c3)c2)CC1` [Example 169, 3-(4-(6-((4-((4-(acetamidomethyl)piperidin-1-yl)methyl)-6-(3,5-dichlorophenyl)pyridin-2-yl)oxy)pyridazin-3-yl)piperazin-1-yl)propanoic acid], the IC50 in test [1] is 0.0316 nM. In addition, the EC50 in test [2] is 1260 nM.
Turning to `CNC(=O)NCC1CCN(Cc2cc(Oc3cnc(N4CCN(C(C)CCS(C)(=O)=O)CC4)nc3)nc(-c3cc(Cl)cc(Cl)c3)c2)CC1` (centres unmarked) [Example 18, 1-((1-((2-(3,5-dichlorophenyl)-6-((2-(4-(4-(methylsulfonyl)butan-2-yl)piperazin-1-yl)pyrimidin-5-yl)oxy)pyridin-4-yl)methyl)piperidin-4-yl)methyl)-3-methylurea], the “furin enzyme pIC50” value in test [1] was determined as 10.7. Further, in test [2], the EC50 was 0.501 nM.
As to `CC(=O)NCC1CCN(Cc2cc(Oc3cnc(N4CCN(CC(C)C(=O)O)CC4)nc3)nc(-c3cc(Cl)cc(Cl)c3)c2)CC1` (centres unmarked) [Example 283, 3-(4-(5-((4-((4-(acetamidomethyl)piperidin-1-yl)methyl)-6-(3,5-dichlorophenyl)pyridin-2-yl)oxy)pyrimidin-2-yl)piperazin-1-yl)-2-methylpropanoic acid], the “furin enzyme pIC50” value in test [1] stood at 9.1. In addition, the EC50 in test [2] is 25.1 nM.
Regarding `CC(=O)NCC1CCN(Cc2cc(Oc3ccc(N4CC5CCC(C4)N5CCC(=O)O)nc3)nc(-c3cc(Cl)cc(Cl)c3)c2)CC1` [Example 185, 3-(3-(5-((4-((4-(Acetamidomethyl)piperidin-1-yl)methyl)-6-(3,5-dichlorophenyl)pyridin-2-yl)oxy)pyridin-2-yl)-3,8-diazabicyclo[3.2.1]octan-8-yl)propanoic acid], in test [1], the “furin enzyme pIC50” value is 9.5. Moreover, in test [2], the EC50 was 31.6 nM.
`CN1CCN(c2ncc(Nc3cc(CN4CCC(CC(=O)O)CC4)cc(-c4cc(Cl)cc(Cl)c4)n3)cn2)CC1` [Example 332, 2-(1-((2-(3,5-Dichlorophenyl)-6-((2-(4-methylpiperazin-1-yl)pyrimidin-5-yl)amino)pyridin-4-yl)methyl)piperidin-4-yl)acetic acid, 4 hydrochloride]: the “furin enzyme pIC50” value in test [1] is on record as 8.3. Besides, in test [2], the EC50 is 50.1 nM.
Regarding `COC(=O)NCC1(O)CCN(Cc2cc(Oc3ccc(N4CCNCC4)nc3)nc(-c3cc(Cl)cc(Cl)c3)c2)CC1` [Example 6, Methyl ((1-((2-(3,5-dichlorophenyl)-6-((6-(piperazin-1-yl)pyridin-3-yl)oxy)pyridin-4-yl)methyl)-4-hydroxypiperidin-4-yl)methyl)carbamate, 4 hydrochloride], the “furin enzyme pIC50” value in test [1] stood at 8.5. The EC50 in test [2] was 7.94 nM.
Turning to `CCN1CCN(c2ccc(Oc3cc(CN4CCC(CC(=O)O)CC4)cc(-c4cc(Cl)cc(Cl)c4)n3)nn2)CC1` [Example 358, 2-(1-((2-(3,5-dichlorophenyl)-6-((6-(4-ethylpiperazin-1-yl)pyridazin-3-yl)oxy)pyridin-4-yl)methyl)piperidin-4-yl)acetic acid], the “furin enzyme pIC50” value in test [1] is listed as 9.1. Further, the EC50 in test [2] is 20 nM.
The matching figures for `O=C(O)CC1CCN(Cc2cc(Oc3cnc(N4CC5CCC(C4)N5)nc3)nc(-c3cc(Cl)cc(Cl)c3)c2)CC1` [Example 163, 2-(1-((2-((2-(3,8-diazabicyclo[3.2.1]octan-3-yl)pyrimidin-5-yl)oxy)-6-(3,5-dichlorophenyl)pyridin-4-yl)methyl)piperidin-4-yl)acetic acid]: 8.7 and 10 nM.
Regarding `CCN(c1cnc(N2CCN(C)CC2)nc1)c1cc(CN2CCC(CC(=O)O)CC2)cc(-c2cc(Cl)cc(Cl)c2)n1` [Example 389, 2-(1-((2-(3,5-Dichlorophenyl)-6-(ethyl(2-(4-methylpiperazin-1-yl)pyrimidin-5-yl)amino)pyridin-4-yl)methyl)piperidin-4-yl)acetic acid], in test [1], the “furin enzyme pIC50” value is given as 8.2. In test [2], the EC50 was 63.1 nM.
`CC(=O)NCC1CCN(Cc2cc(Oc3cnc(N4CCN(CCC(N)=O)CC4)nc3)cc(-c3cc(Cl)cc(Cl)c3)c2)CC1` [Example 170, 3-(4-(5-((5-((4-(acetamidomethyl)piperidin-1-yl)methyl)-3′,5′-dichloro-[1,1′-biphenyl]-3-yl)oxy)pyrimidin-2-yl)piperazin-1-yl)propanamide]: in test [1], the IC50 was 0.794 nM. For the same molecule, the EC50 in test [2] is 12.6 nM.
Regarding `CCN1C[C@@H]2C[C@H]1CN2c1ncc(Oc2cc(CN3CCC(CC(=O)O)CC3)cc(-c3cc(Cl)cc(Cl)c3)n2)cn1` [Example 232, 2-(1-((2-(3,5-dichlorophenyl)-6-((2-((1S,4S)-5-ethyl-2,5-diazabicyclo[2.2.1]heptan-2-yl)pyrimidin-5-yl)oxy)pyridin-4-yl)methyl)piperidin-4-yl)acetic acid], in test [1], the “furin enzyme pIC50” value is 8.9. In test [2], the EC50 is 50.1 nM.
In the same order, the values of `COC(=O)NCC1CCN(Cc2cc(Oc3cnc(N4CCN(C(C)CCC(=O)O)CC4)nc3)nc(-c3cc(Cl)cc(Cl)c3)c2)CC1` (centres unmarked) [Example 222, 4-(4-(5-((6-(3,5-dichlorophenyl)-4-((4-(((methoxycarbonyl)amino)methyl)piperidin-1-yl)methyl)pyridin-2-yl)oxy)pyrimidin-2-yl)piperazin-1-yl)pentanoic acid] are 10.2 and 25.1 nM.
With `CS(=O)(=O)N[C@H]1[C@@H]2CCN(Cc3cc(Oc4cnc(N5CCN(CCC(=O)O)CC5)nc4)nc(-c4cc(Cl)cc(Cl)c4)c3)CC[C@@H]21` [Example 80, 3-(4-(5-((6-(3,5-dichlorophenyl)-4-(((1R,7S,8r)-8-(methylsulfonamido)-4-azabicyclo[5.1.0]octan-4-yl)methyl)pyridin-2-yl)oxy)pyrimidin-2-yl)piperazin-1-yl)propanoic acid], in test [1], the “furin enzyme pIC50” value stood at 9.5. Besides, in test [2], the EC50 was 7.94 nM.
Regarding `Cc1c(CN2CCC(CC(=O)O)CC2)cc(-c2cc(Cl)cc(Cl)c2)nc1Oc1cnc(N2CCN(C)CC2)cn1` [Example 333, 2-(1-((6-(3,5-Dichlorophenyl)-3-methyl-2-((5-(4-methylpiperazin-1-yl)pyrazin-2-yl)oxy)pyridin-4-yl)methyl)piperidin-4-yl)acetic acid], the “furin enzyme pIC50” value in test [1] is given as 8.7. Besides, the EC50 in test [2] was 12.6 nM.
As for `O=C(O)CC1CCN(Cc2cc(Oc3cnc(N4CC5CC(C4)N5)nc3)nc(-c3cc(Cl)cc(Cl)c3)c2)CC1` [Example 162, 2-(1-((2-((2-(3,6-diazabicyclo[3.1.1]heptan-3-yl)pyrimidin-5-yl)oxy)-6-(3,5-dichlorophenyl)pyridin-4-yl)methyl)piperidin-4-yl)acetic acid], the “furin enzyme pIC50” value in test [1] came out at 8.4. Besides, the EC50 in test [2] is 79.4 nM.
